Measurements from publication PMC11790914, “Chemogenomics for steroid hormone receptors (NR3)” (Communications Chemistry, 2025).
Several values for one entry are separate records, joined by “and”; a condition that tells them apart may be missing. Equal entries are not always repeated. Where two headings read alike, the source gives them in different places.

What was measured:
Gal4-VP16 = type: cell-based; conditions: 1 µM; vs. DMSO ctrl; single replicates n=1-3
MAPK1 = molecular target: T1, MAPK1 (Homo sapiens, UniProt P28482); experiment: Liability panel screening by DSF: MAPK1; type: binding; conditions: DSF, 20 µM, n=2; read-out: Mean ΔTM MAPK1
T1 construct: made in house
T1 sequence (P28482 whole entry, species assumed): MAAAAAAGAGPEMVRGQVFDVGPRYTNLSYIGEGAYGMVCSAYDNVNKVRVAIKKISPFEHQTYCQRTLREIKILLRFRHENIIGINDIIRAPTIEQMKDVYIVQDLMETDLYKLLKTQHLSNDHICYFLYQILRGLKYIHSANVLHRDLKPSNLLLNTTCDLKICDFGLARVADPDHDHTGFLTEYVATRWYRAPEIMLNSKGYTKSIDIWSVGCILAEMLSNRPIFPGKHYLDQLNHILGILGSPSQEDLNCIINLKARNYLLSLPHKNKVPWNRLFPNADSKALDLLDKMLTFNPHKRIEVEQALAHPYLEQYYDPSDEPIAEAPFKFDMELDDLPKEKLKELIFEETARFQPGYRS
Outline: (§1)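 Thermal shift: in-house recombinant protein at 2 µM in 10 mM HEPES pH 7.5 with 500 mM NaCl, SYPRO Orange 1:1000, heated at 3 °C/min to 85 °C in technical duplicates. Tm is the Boltzmann inflection point, reported as ∆Tm in K.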

HEK293T cells [1] = experiment: Cytotoxicity: apoptosis induction (caspase-3/7 DEVD fluorogenic DNA dye); conditions: 1 µM; HEK293T, 24 h; apoptotic cell count normalized to 0.1% DMSO; single replicates
[2] = tested on: NF-κB activity in HEK293 NF-κB reporter cells; experiment: NF-kB activity assay (GFP reporter, ionomycin/PMA); type: cell-based; conditions: for Mean NFκB response: n=3; for NF-κB activity (inflammatory response to ionomycin/PMA): HEK293 NF-κB reporter cells, compounds at recommended concentrations, imaged over 24 h, n = 3
Outline: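 HEK293 NF-κB GFP reporter cells given compound in 0.1% DMSO for 4 h, then stimulated with ionomycin 100 ng/mL plus PMA 10 ng/mL. Imaged every 90 min over 24 h; GFP-positive cell count normalized to confluence, three independent biological replicates.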

HEK293T cells [3] = experiment: Cytotoxicity: necrosis induction (red fluorescent dye for permeable plasma membranes); type: cell-based; conditions: 1 µM, 24 h, necrotic cell count normalized to 0.1% DMSO, single replicates;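 note: compounds applied in DMEM high glucose with 0.1% FCS and 0.1% DMSO, necrotic HEK293T cells counted by red staining of cells whose plasma membranes had become permeable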
NR3C4 (AR) = conditions: read-out: Potency [nM] IC50, NR3C4 (AR); cited from earlier work
BRD4 = molecular target: T2, BRD4 (Homo sapiens, UniProt O60885); experiment: Liability panel screening by DSF: BRD4; type: binding; conditions: read-out: Mean ΔTM BRD4
T2 construct: This panel comprised ten highly ligandable kinases and bromodomains; made in house
Outline: as §1

HEK293T cells [4] = experiment: Cytotoxicity: metabolic activity (WST-8 / CCK-8 assay); conditions: 1 µM; HEK293T, 24 h; WST-8; normalized to 0.1% DMSO; single replicates
CSNK1D = molecular target: T3, CSNK1D (Homo sapiens, UniProt P48730); experiment: Liability panel screening by DSF: CSNK1D; type: binding; conditions: read-out: Mean ΔTM CSNK1D
T3 construct: made in house
T3 sequence (P48730 whole entry, species assumed): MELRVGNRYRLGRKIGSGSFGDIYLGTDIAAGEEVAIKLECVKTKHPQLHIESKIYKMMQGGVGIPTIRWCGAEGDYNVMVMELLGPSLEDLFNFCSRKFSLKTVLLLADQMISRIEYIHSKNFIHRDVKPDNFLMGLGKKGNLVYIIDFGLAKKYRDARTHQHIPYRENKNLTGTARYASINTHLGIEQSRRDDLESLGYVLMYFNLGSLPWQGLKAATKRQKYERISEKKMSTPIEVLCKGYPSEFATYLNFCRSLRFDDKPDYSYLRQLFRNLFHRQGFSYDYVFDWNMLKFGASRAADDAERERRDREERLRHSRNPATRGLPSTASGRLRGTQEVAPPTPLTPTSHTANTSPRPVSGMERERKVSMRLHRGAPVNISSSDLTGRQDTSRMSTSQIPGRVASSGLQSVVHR
Outline: as §1

ABL1 = molecular target: T4, ABL1 (Homo sapiens, UniProt P00519); experiment: Liability panel screening by DSF: ABL1; type: binding; conditions: read-out: Mean ΔTM ABL1
T4 construct: made in house
T4 sequence (P00519 whole entry, species assumed): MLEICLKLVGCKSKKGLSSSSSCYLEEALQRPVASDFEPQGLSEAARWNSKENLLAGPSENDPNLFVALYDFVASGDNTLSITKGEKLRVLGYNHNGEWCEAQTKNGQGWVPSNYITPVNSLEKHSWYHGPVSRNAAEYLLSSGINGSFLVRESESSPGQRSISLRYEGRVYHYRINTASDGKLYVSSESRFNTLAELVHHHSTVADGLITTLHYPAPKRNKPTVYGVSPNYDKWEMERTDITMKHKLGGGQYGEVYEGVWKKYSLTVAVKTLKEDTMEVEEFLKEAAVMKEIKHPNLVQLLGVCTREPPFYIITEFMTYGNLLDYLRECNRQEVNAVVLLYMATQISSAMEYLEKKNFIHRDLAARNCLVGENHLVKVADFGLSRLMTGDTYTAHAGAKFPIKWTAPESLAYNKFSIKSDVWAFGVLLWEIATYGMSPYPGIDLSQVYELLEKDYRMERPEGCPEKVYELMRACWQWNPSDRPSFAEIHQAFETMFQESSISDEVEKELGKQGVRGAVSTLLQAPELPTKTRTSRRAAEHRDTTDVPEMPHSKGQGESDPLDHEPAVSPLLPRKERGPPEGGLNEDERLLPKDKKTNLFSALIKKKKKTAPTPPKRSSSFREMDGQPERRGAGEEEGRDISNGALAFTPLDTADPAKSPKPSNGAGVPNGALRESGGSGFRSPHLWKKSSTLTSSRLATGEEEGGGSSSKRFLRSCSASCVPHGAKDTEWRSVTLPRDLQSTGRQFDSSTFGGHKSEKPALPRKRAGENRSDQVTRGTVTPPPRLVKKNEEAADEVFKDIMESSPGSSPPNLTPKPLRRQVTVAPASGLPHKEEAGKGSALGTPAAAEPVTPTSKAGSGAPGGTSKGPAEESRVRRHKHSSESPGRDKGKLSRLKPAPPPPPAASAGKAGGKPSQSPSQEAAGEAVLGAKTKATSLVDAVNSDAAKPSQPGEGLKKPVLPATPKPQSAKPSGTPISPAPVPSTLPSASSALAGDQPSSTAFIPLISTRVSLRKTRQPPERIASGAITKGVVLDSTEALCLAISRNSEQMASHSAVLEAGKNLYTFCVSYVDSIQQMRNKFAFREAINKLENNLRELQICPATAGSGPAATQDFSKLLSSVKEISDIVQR
Outline: as §1

HEK293T cells [5] = experiment: Cytotoxicity: growth-rate (change in confluence over 24 h); conditions: 1 µM, normalized to 0.1% DMSO control, single replicates (n=1...)
Experimental: Cells were incubated with the test compounds at the indicated concentrations solubilized with 0.1% DMSO for 24 h. Growth-rate was determined based on the change in confluence over 24 h normalized to the change in confluence of cells treated with the 0.1% DMSO control (n = 10). Metabolic activity was determined with a water-soluble tetrazolium-8 (WST-8) assay (n = 8) after 24 h treatment. Apoptotic cells were detected with a fluorogenic DNA dye coupled to the caspase-3/7 recognition sequence (DEVD) after 24 h treatment and the apoptotic cell count was normalized to 0.1% DMSO treated cells (n = 6).
HEK293T cells (German Collection of Microorganisms and Cell Culture GmbH, DSMZ; #ACC305) were cultured in DMEM high glucose, supplemented with 10% fetal calf serum (FCS), sodium pyruvate (1 mM), penicillin (100 µ/mL) and streptomycin (100 µg/mL) at 37 °C and 5% (v/v) CO2, and seeded in pre-coated (10 µg/mL collagen G solution (Merck KgaA; #L7213) for 30 min at 37 °C) 96-well plates (2 × 10^5 cells per well). After 24 h, the cells were treated with the respective NR3 CG compound candidate at the recommended concentration, bexarotene (100 µM) or doxorubicin (30 µM) as positive controls in DMEM high glucose supplemented with 0.1% FCS, penicillin (100 µ/mL), streptomycin (100 µg/mL) and 0.1% DMSO, or 0.1% DMSO alone as an untreated control. Each sample was prepared in at least four biologically independent replicates. […] Thereafter, the medium was aspirated and the cells were incubated for 3 h with 90 µL DMEM high glucose supplemented with 0.2% FCS, penicillin (100 µ/mL) and streptomycin (100 µg/mL) and additionally containing 10 µL Cell Counting Kit 8 solution (CCK-8; MedChemExpress, Monmouth Junction, New York, USA; #HY-K0301), and absorbance was measured at 1 h, 2 h and 3 h of incubation at 450 nm on a Tecan Spark Cyto to assess metabolic activity of the cells. Before drug administration, after the first medium exchange, 24 h after drug administration, and after fluorescence imaging cell confluence was assessed using the Tecan Spark Cyto, to account for changes in cell confluence due to drug administration and cell handling. Compound effects on cell confluence, apoptosis, metabolic activity and necrosis were normalized to the vehicle control of each biological replicate individually.

TRIM24 = molecular target: T5, TRIM24 (Homo sapiens, UniProt O15164); experiment: Liability panel screening by DSF: TRIM24; type: binding; conditions: read-out: Mean ΔTM TRIM24
T5 construct: This panel comprised ten highly ligandable kinases and bromodomains; made in house
T5 sequence (O15164 899-1004 limits assumed): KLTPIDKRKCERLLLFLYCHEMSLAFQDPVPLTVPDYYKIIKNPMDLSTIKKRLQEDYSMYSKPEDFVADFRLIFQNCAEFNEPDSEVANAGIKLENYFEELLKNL
Outline: as §1

CDK2 = molecular target: T6, CDK2 (Homo sapiens, UniProt P24941); experiment: Liability panel screening by DSF: CDK2; type: binding; conditions: read-out: Mean ΔTM CDK2
T6 construct: made in house
Outline: as §1

AURKA = molecular target: T7, AURKA (Homo sapiens, UniProt O14965); experiment: Liability panel screening by DSF: AURKA; type: binding; conditions: read-out: Mean ΔTM AURKA
T7 construct: made in house
T7 sequence (O14965 1-403): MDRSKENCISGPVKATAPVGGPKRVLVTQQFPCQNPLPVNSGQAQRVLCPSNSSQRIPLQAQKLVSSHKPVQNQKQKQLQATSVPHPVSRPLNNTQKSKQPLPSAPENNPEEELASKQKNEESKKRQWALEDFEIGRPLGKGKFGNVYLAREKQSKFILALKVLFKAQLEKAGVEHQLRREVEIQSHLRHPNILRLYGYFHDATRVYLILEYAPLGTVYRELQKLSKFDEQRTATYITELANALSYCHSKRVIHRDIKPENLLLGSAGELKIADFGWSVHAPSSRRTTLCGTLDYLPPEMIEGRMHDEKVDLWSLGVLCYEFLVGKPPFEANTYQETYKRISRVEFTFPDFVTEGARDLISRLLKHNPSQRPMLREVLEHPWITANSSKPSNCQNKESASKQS
Outline: as §1

[6] = tested on: ATF6 activity in Hela ATF6 reporter cells; experiment: Endoplasmic reticulum stress assay (ATF6 Renilla luciferase reporter, tunicamycin); type: cell-based; conditions: for activity at 1 µM: Homo sapiens, HeLa, single replicates n=1 to n=5, read-out: ER stress [rel. ATF6 activity]
Outline: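 HeLa ATF6 Renilla reporter cells were pretreated 4 h with compounds in 0.1% DMSO, then stimulated with tunicamycin (100 ng/mL) for 18 h. Renilla luminescence (DualGlo) was normalized to 0.1% DMSO control; five independent experiments.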

BRPF1 = molecular target: T8, BRPF1 (Homo sapiens, UniProt P55201); experiment: Liability panel screening by DSF: BRPF1; type: binding; conditions: read-out: Mean ΔTM BRPF1
T8 construct: This panel comprised ten highly ligandable kinases and bromodomains; made in house
T8 sequence (P55201 628-732 limits assumed): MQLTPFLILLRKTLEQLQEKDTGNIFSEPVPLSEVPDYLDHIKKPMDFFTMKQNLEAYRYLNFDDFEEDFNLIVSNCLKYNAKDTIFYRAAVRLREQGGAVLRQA
Outline: as §1

GSK3B = molecular target: T9, GSK3B (Homo sapiens, UniProt P49841); experiment: Liability panel screening by DSF: GSK3B; type: binding; conditions: read-out: Mean ΔTM GSK3B
T9 construct: made in house
T9 sequence (P49841 whole entry, species assumed): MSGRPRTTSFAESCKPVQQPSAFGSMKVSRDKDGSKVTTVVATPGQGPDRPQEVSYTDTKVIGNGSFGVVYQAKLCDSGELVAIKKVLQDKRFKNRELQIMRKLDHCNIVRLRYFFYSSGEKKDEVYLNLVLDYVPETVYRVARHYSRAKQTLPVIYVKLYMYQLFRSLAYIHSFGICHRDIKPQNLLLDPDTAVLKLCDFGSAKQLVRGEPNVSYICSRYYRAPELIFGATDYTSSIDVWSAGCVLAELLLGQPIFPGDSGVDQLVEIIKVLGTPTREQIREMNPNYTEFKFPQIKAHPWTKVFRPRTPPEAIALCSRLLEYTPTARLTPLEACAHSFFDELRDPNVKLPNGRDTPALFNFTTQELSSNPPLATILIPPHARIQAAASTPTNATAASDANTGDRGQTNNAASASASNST

FGFR3 = molecular target: T10, FGFR3 (Homo sapiens, UniProt P22607); experiment: Liability panel screening by DSF: FGFR3; type: binding; conditions: read-out: Mean ΔTM FGFR3
T10 construct: made in house
T10 sequence (P22607 23-806, species assumed): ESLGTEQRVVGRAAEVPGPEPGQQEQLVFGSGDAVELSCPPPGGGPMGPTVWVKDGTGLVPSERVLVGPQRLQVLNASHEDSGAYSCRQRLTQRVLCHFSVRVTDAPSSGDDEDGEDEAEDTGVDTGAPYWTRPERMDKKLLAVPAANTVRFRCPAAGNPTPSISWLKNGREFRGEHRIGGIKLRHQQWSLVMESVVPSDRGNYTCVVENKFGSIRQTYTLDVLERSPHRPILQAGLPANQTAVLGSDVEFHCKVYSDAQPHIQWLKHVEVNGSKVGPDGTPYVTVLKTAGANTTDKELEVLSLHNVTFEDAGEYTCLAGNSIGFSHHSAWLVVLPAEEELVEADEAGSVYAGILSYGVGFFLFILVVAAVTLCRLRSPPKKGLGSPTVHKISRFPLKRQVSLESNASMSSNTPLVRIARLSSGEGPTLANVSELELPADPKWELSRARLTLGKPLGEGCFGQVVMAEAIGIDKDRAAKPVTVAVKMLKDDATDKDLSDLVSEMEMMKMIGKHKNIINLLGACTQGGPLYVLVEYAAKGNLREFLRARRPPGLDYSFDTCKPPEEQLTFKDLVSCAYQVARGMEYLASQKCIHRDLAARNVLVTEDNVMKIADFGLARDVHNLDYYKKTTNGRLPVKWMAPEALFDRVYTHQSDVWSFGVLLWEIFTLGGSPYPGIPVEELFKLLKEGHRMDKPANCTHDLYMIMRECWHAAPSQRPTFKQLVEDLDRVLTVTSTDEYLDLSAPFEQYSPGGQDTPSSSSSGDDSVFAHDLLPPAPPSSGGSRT
Outline: as §1

NR3A1 (ERα) = conditions: of estradiol; cited from earlier work

| Structure (SMILES) | Apoptosis induction [AI] (HEK293T cells [1]) | Mean NFκB response ([2]; 1 µM, 1,5 h) | Mean NFκB response ([2]; 1 µM, 4,5 h) | Mean NFκB response ([2]; 1 µM, 7,5 h) | Mean NFκB response ([2]; 1 µM, 10,5 h) | Mean NFκB response ([2]; 1 µM, 13,5 h) | Mean NFκB response ([2]; 1 µM, 16,6 h) | Mean NFκB response ([2]; 1 µM, 19,5 h) | Mean NFκB response ([2]; 1 µM, 22,5 h) | Mean NFκB response ([2]; 1 µM, 3 h) | Mean NFκB response ([2]; 1 µM, 6 h) | Mean NFκB response ([2]; 1 µM, 9 h) | Mean NFκB response ([2]; 1 µM, 12 h) | Mean NFκB response ([2]; 1 µM, 15 h) | Mean NFκB response ([2]; 1 µM, 18 h) | Mean NFκB response ([2]; 1 µM, 21 h) | Mean NFκB response ([2]; 1 µM, 24 h) | NF-κB activity (inflammatory response to ionomycin/PMA) [2] | Necrosis induction [NI] (HEK293T cells [3]) | Metabolic activity [MA] (HEK293T cells [4]) | other results |
| --- | --- | --- | --- | --- | --- | --- | --- | --- | --- | --- | --- | --- | --- | --- | --- | --- | --- | --- | --- | --- | --- |
| N#Cc1ccc([C@H]2CCCC[C@H]2O)cc1C(F)(F)F [PF-998425] | 1.04 and 1.14 and 1.23 and 0.96 and 0.64 and 1.74 | 2870.31 GFP+-cells/confluence ∙ 1000 | 3725.32 GFP+-cells/confluence ∙ 1000 | 8899.00 GFP+-cells/confluence ∙ 1000 | 17651.00 GFP+-cells/confluence ∙ 1000 | 24472.33 GFP+-cells/confluence ∙ 1000 | 29696.67 GFP+-cells/confluence ∙ 1000 | 33323.33 GFP+-cells/confluence ∙ 1000 | 35466.67 GFP+-cells/confluence ∙ 1000 | 3247.46 GFP+-cells/confluence ∙ 1000 | 5028.67 GFP+-cells/confluence ∙ 1000 | 13977.00 GFP+-cells/confluence ∙ 1000 | 20998.00 GFP+-cells/confluence ∙ 1000 | 27073.33 GFP+-cells/confluence ∙ 1000 | 31376.67 GFP+-cells/confluence ∙ 1000 | 34843.33 GFP+-cells/confluence ∙ 1000 | 36873.33 GFP+-cells/confluence ∙ 1000 | tended to enhance NF-κB activity | 0.87 and 1.08 and 0.88 and 1.00 | 1.03 and 0.98 (3×) and 1.06 and 0.99 and 1.07 and 1.00 | VP16 control [fold reporter gene activity] (Gal4-VP16): 1.26 fold reporter gene activity and 1.19 fold reporter gene activity and 1.03 fold reporter gene activity; ΔTm at 20 µM (MAPK1): -0.24 °C; IC50 (NR3C4 (AR)): 43 ± 12 nM; ΔTm at 20 µM (BRD4; DSF, 20 µM, n=2): -1.51 °C; ΔTm at 20 µM (CSNK1D; DSF, 20 µM, n=2): 0.3 °C; ΔTm at 20 µM (ABL1; DSF, 20 µM, n=2): 0.55 °C; Growth rate [GR] (HEK293T cells [5]): 0.92 and 1.38 and 1.07 and 1.15 and 0.96 and 0.86 and 0.80 and 0.57 and 1.49 and 3.80; ΔTm at 20 µM (TRIM24; DSF, 20 µM, n=2): -1.04 °C; ΔTm at 20 µM (CDK2; DSF, 20 µM, n=2): 0.11 °C; ΔTm at 20 µM (AURKA; DSF, 20 µM, n=2): -1.09 °C; activity at 1 µM [6]: 87%; ΔTm at 20 µM (BRPF1; DSF, 20 µM, n=2): -0.66 °C; ΔTm at 20 µM (GSK3B; DSF, 20 µM, n=2): -0.43 °C; ΔTm at 20 µM (FGFR3; DSF, 20 µM, n=2): -0.09 °C |
| CCCc1c(-c2ccc(O)cc2)nn(-c2ccc(O)cc2)c1-c1ccc(O)cc1 [Propylpyrazoletriol] | 1.04 and 1.18 and 0.79 and 1.33 and 1.63 and 1.23 | 3210.54 GFP+-cells/confluence ∙ 1000 | 4272.75 GFP+-cells/confluence ∙ 1000 | 9949.66 GFP+-cells/confluence ∙ 1000 | 19765.59 GFP+-cells/confluence ∙ 1000 | 27110.00 GFP+-cells/confluence ∙ 1000 | 32836.67 GFP+-cells/confluence ∙ 1000 | 36663.33 GFP+-cells/confluence ∙ 1000 | 39666.67 GFP+-cells/confluence ∙ 1000 | 3501.92 GFP+-cells/confluence ∙ 1000 | 6059.91 GFP+-cells/confluence ∙ 1000 | 15582.73 GFP+-cells/confluence ∙ 1000 | 23751.78 GFP+-cells/confluence ∙ 1000 | 30496.67 GFP+-cells/confluence ∙ 1000 | 34710.00 GFP+-cells/confluence ∙ 1000 | 37963.33 GFP+-cells/confluence ∙ 1000 | 40840.00 GFP+-cells/confluence ∙ 1000 | no impact on NF-κB activity | 1.15 and 0.83 and 0.85 and 0.82 | 0.98 (2×) and 1.03 and 0.91 and 0.97 and 0.94 and 1.18 and 1.14 | ΔTm at 20 µM (BRD4): -2.55 °C; ΔTm at 20 µM (CSNK1D): 1.72 °C; ΔTm at 20 µM (ABL1): -0.07 °C; Growth rate [GR] (HEK293T cells [5]): 0.81 and 2.52 and 0.99 and 1.39 and 1.25 and 1.17 and 0.88 and 3.47 and 1.21 and 7.02; ΔTm at 20 µM (TRIM24): -3.23 °C; ΔTm at 20 µM (CDK2): -2.26 °C; ΔTm at 20 µM (AURKA): 0.0212 °C; rel. activity from literature, NR3A1 (ERα): % of estradiol (NR3A1 (ERα)): 120%; ATF6 activity (tunicamycin-induced endoplasmic reticulum stress) ([6]; Hela ATF6 reporter cells, tunicamycin 100 ng/mL, 18 h, compounds at recommended concentrations, n = 5): failed to reduce ATF6 activity; activity at 1 µM [6]: 96%; ΔTm at 20 µM (BRPF1): -2.86 °C; ΔTm at 20 µM (GSK3B): 0.06 °C; ΔTm at 20 µM (FGFR3): -0.78 °C |
